Assay results taken from paper PMC5379069, “A Pseudomonas T6SS effector recruits PQS-containing outer membrane vesicles for iron acquisition” (Nature Communications, 2017).

How the values were obtained:
TseF (PA2374) [1] = target: T1, TseF (PA2374) (Pseudomonas aeruginosa, UniProt Q9I1A5); experiment: ITC; also fat western blot; type: binding
TseF (PA2374) [2] = target: T1, TseF (PA2374); experiment: ITC; also immobilized-PQS pull-down and fat western blot; Kd […] with Fe3+; type: binding

T1 sequence (Q9I1A5 entry or part of it): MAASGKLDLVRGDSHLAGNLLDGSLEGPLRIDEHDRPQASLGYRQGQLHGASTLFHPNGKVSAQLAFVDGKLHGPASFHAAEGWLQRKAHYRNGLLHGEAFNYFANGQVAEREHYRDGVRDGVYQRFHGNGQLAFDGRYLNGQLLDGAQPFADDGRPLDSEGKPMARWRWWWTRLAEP

| SMILES | Kd (TseF (PA2374) [1]) | Kd (TseF (PA2374) [2]) |
| --- | --- | --- |
| CCCCCCCc1cc(O)c2ccccc2n1 [HHQ, 4-hydroxy-2-heptylquinoline] | 25.7 µM |  |
| CCCCCCCc1[nH]c2ccccc2c(=O)c1O [PQS, 2-heptyl-3-hydroxy-4-quinolone] |  | 0.33 µM |
